# Test results taken from patent publication US7125842B2, “Anti-fungal compounds and methods of use” (CanBas Co. Ltd., priority 2003, dated 2006).
# Columns and labels:
# [1] = system: Cryptococcus neoformans (ATCC 24067); assay: Minimal growth inhibitory concentration by turbidity, Cryptococcus neoformans; format: cell-based; conditions: Cryptococcus neoformans ATCC 24067, fluid Sabouraud medium, 37 degree, turbidity two days after inoculation
# Protocol: (§1) Candida albicans was obtained from ATCC (ATCC 10231) and cultured in fluid Sabouraud medium at 37 degree. The turbidity was measured one day after the innoculation and treatment with CBP501 at 0.03, 0.1, 0.3, 1, 3, 10, 30, 100 μg/ml. Candida glabrata was obtained from ATCC (ATCC 36583) and cultured in fluid Sabouraud medium at 28 degree. The turbidity was measured two days after the innoculation and treatment with CBP501 at 0.03, 0.1, 0.3, 1, 3, 10, 30, 100 μg/ml. Cryptococcus neoformans was obtained from ATCC (ATCC 24067) and cultured in fluid Sabouraud medium at 37 degree. The turbidity was measured two days after the innoculation and treatment with CBP501 at 0.03, 0.1, 0.3, 1, 3, 10, 30, 100 μg/ml. Trichophyton mentagroohytes was obtained from ATCC (ATCC 9533) and cultured in potato dextrose broth at 28 degree. The turbidity was measured three days after the innoculation and treatment with CBP501 at 0.03, 0.1, 0.3, 1, 3, 10, 30, 100 μg/ml. Minimal growth inhibitory concentrations were determined as the concentration of minimal CBP501 where the turbidity was not increased (Table 2).
# PLK1 = target: T1, PLK1 (Homo sapiens, UniProt P53350); assay: In vitro phosphorylation inhibition, PLK1 (ELISA); format: biochemical; conditions: CBP501 0.5, 5, 50 uM, 30° C., compared to cyclin-dependent kinases, PKA and PKC (FIG. 1)
# T1 construct: PLK-1: Human full length GST fusion, E. Coli; GST; host or cells: E. coli
# T1 sequence (P53350 whole entry, the tested form may be a part): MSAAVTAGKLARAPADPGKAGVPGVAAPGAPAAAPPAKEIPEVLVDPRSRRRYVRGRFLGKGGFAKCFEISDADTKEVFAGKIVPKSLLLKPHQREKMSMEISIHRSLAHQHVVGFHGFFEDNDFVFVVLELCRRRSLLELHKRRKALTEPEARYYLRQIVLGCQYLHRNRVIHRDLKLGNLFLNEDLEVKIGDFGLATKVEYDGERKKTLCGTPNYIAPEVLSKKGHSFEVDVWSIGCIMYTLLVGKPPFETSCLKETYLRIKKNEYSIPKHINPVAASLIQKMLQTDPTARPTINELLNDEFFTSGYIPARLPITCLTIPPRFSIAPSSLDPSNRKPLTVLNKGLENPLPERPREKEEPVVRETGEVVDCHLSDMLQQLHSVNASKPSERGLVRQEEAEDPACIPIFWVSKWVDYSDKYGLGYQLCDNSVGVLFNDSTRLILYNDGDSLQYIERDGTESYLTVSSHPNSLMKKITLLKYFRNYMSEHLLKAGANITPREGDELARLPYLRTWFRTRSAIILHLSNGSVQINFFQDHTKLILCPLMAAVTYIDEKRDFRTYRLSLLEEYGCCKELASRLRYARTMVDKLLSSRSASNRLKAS
# Protocol: (§2) Source of kinases, measurement method, substrate, first antibody, second antibody, reaction buffer, reaction volume, ATP concentration, and reaction time are as follows. ATM and ATR: Full length recombinant human, 293T cells, enzyme linked immunosorbent assay (ELISA), GST-p53 (aal -99), anti-p53-phosphorylated Serl 5, Horse radish peroxidase (HRP)-labeled anti-rabbit IgG, 1×Mg/Mn kinase buffer (20 mM Hepes-KOH (pH7.5), 1 mM DTT, 80 ug/ml BSA, 10 mM MgCl2, 10 mM MnCl2), 50 ul, 100 uM, and 60 min. Chk1, Chk2 and c-Tak1: Full length recombinant human from SF-9 cells for Chk1, Full length recombinant human from E. Coli for Chk2 and Full length recombinant human from SF-9 cells for c-Tak1, respectively, ELISA, GST-Cdc25C (aa167–267), anti-Cdc25C-phosphorylated Ser216, HRP-labelled anti-mouse IgG, 1×Mg kinase buffer (20 mM Hepes-KOH (pH7.5), 1 mM DTT, 80 ug/ml BSA, 10 mM MgCl2), 50 ul, 50 uM, and 60 min. PLK-1: Human full length GST fusion, E. Coli, ELISA, GST fusion protein Y, Anti-phosphorylated Ser/Thr monoclonal, HRP-labelled anti-mousr IgG, 1×Mg kinase buffer, 30 ul, 50 uM, and 60 min. […]
# (§3) All incubations were at 30° C. […] The phosphorylated substrate was detected with either ELISA or RIA as described above. […] The quantity of phosphorylated substrate for each kinase reaction without CBP501 was nominated as 100%.
# [2] = system: Candida albicans (ATCC 10231); assay: Minimal growth inhibitory concentration by turbidity, Candida albicans; format: cell-based; conditions: Candida albicans ATCC 10231, fluid Sabouraud medium, 37 degree, turbidity one day after inoculation
# Protocol: as §1
# ATR = target: T2, ATR (Homo sapiens, UniProt Q13535); assay: In vitro phosphorylation inhibition, ATR (ELISA); format: biochemical; conditions: CBP501 0.5, 5, 50 uM, 30° C., compared to cyclin-dependent kinases, PKA and PKC (FIG. 1)
# T2 construct: ATM and ATR: Full length recombinant human, 293T cells; host or cells: 293T cells
# Protocol: as §2, §3
# [3] = system: Candida glabrata (ATCC 36583); assay: Minimal growth inhibitory concentration by turbidity, Candida glabrata; format: cell-based; conditions: Candida glabrata ATCC 36583, fluid Sabouraud medium, 28 degree, turbidity two days after inoculation
# Protocol: as §1
# ATM = target: T3, ATM (Homo sapiens, UniProt Q13315); assay: In vitro phosphorylation inhibition, ATM (ELISA); format: biochemical; conditions: CBP501 0.5, 5, 50 uM, 30° C., compared to cyclin-dependent kinases, PKA and PKC (FIG. 1)
# T3 construct: ATM and ATR: Full length recombinant human, 293T cells; host or cells: 293T cells
# T3 sequence (Q13315 whole entry): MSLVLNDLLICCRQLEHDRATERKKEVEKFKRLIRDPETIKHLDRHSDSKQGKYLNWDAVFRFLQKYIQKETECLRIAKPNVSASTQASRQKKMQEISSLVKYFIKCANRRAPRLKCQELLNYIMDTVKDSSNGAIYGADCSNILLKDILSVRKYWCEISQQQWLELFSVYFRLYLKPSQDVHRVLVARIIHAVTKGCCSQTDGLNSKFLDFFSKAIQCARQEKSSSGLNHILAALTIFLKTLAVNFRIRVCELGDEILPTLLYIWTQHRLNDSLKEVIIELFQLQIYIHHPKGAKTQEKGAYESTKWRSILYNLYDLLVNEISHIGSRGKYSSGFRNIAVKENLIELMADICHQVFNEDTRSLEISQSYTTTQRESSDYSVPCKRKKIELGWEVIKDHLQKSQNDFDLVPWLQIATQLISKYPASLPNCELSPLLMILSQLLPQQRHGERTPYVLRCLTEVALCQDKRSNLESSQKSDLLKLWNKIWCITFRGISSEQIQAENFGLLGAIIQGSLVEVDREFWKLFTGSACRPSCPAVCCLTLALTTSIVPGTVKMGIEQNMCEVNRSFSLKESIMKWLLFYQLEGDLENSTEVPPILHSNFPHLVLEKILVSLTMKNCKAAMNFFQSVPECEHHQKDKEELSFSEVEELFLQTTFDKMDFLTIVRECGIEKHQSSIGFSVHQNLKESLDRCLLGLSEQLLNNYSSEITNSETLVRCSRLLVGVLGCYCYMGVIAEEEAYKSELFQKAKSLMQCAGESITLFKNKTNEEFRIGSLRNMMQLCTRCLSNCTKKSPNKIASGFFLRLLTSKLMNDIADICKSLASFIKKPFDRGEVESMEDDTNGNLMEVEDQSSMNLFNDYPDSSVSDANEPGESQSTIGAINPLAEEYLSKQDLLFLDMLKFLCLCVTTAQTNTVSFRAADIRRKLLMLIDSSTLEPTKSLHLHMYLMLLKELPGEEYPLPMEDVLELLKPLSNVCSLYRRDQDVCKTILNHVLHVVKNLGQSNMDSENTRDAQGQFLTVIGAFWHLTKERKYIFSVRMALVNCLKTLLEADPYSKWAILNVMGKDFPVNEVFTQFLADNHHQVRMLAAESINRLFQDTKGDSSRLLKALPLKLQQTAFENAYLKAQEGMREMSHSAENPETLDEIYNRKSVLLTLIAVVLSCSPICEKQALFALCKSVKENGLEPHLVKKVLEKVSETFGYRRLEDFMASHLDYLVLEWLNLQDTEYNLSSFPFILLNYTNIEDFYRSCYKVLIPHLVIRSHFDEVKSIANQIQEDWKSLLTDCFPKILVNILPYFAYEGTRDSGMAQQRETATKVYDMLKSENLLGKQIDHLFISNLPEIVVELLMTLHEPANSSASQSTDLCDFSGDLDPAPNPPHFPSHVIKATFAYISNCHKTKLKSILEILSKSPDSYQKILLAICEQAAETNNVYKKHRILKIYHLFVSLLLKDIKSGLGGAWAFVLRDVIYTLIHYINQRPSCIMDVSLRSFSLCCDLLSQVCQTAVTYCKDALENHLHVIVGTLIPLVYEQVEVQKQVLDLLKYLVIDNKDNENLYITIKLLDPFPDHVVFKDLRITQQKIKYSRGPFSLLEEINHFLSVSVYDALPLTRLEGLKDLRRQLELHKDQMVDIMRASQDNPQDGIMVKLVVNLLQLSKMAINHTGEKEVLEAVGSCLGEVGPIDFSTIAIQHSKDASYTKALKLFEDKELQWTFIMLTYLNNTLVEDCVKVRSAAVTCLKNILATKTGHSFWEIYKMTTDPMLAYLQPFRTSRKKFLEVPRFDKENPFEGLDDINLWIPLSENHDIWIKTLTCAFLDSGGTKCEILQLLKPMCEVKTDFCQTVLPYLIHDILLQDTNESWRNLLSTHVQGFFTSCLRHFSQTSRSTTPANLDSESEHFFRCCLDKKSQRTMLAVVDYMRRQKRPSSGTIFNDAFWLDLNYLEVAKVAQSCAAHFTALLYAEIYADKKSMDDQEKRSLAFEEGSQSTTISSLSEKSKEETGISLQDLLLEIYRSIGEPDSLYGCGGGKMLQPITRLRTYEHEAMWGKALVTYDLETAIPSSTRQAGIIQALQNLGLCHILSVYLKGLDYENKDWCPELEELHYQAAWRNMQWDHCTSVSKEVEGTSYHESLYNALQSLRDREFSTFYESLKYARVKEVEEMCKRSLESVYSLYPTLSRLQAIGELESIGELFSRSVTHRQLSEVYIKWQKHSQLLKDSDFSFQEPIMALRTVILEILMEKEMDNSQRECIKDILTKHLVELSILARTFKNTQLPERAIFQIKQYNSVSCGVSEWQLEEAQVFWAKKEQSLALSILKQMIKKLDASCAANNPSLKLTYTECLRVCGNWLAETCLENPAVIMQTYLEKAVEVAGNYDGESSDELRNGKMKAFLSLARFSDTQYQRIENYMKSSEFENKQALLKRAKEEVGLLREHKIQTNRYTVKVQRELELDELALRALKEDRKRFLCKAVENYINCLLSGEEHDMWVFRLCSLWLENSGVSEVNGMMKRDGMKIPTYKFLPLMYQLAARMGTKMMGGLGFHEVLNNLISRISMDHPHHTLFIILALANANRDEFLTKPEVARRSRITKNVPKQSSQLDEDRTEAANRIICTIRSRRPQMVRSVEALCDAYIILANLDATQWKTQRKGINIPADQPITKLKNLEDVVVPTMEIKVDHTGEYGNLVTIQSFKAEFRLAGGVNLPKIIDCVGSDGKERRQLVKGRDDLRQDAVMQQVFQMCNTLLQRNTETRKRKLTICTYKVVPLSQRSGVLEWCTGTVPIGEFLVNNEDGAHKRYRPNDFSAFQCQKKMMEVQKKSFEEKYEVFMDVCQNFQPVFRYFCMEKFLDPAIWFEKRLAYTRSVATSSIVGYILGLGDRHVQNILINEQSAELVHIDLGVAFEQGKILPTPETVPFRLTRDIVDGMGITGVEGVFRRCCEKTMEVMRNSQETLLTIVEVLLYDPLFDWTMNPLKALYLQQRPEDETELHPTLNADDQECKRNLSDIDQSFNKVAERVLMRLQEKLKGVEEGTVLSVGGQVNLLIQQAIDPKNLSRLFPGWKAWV
# Protocol: as §2, §3
# CHK2 = target: T4, CHK2 (Homo sapiens, UniProt O96017); assay: In vitro phosphorylation inhibition, CHK2 (ELISA); format: biochemical; conditions: CBP501 0.5, 5, 50 uM, 30° C., compared to cyclin-dependent kinases, PKA and PKC (FIG. 1)
# T4 construct: Full length recombinant human from E. Coli for Chk2; host or cells: E. coli
# T4 sequence (O96017 whole entry): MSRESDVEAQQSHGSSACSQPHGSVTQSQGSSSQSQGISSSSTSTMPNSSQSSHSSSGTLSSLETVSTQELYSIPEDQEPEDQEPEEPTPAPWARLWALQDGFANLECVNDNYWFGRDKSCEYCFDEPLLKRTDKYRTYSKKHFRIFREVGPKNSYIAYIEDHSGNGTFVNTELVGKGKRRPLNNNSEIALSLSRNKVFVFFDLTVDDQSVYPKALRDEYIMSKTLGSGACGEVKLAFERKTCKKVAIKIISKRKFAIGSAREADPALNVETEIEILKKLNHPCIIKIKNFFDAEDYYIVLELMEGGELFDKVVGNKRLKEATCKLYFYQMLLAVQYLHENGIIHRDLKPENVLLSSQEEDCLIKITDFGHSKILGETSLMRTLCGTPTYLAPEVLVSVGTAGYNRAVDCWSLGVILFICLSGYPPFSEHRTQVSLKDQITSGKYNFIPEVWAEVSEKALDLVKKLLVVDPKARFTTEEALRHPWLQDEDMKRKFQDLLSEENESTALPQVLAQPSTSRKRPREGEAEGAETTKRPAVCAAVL
# Protocol: as §2, §3
# CHK1 = target: T5, CHK1 (Homo sapiens, UniProt O14757); assay: In vitro phosphorylation inhibition, CHK1 (ELISA); format: biochemical; conditions: CBP501 0.5, 5, 50 uM, 30° C., compared to cyclin-dependent kinases, PKA and PKC (FIG. 1)
# T5 construct: Full length recombinant human from SF-9 cells for Chk1; host or cells: SF-9 cells
# T5 sequence (O14757 1-476): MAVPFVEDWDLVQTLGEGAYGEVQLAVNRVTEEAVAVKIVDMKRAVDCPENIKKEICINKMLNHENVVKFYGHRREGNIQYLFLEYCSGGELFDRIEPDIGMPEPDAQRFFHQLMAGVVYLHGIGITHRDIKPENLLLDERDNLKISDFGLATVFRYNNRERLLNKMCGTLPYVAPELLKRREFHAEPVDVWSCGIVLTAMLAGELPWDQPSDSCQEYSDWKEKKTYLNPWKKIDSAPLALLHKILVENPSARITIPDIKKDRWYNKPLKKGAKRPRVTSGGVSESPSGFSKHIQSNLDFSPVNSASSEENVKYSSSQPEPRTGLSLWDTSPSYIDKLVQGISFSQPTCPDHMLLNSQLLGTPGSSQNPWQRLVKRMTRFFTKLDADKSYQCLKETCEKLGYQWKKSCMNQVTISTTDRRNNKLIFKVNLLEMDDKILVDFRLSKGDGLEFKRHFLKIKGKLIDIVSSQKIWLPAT
# Protocol: as §2, §3
# [4] = system: Trichophyton mentagroohytes (ATCC 9533); assay: Minimal growth inhibitory concentration by turbidity, Trichophyton mentagroohytes; format: cell-based; conditions: Trichophyton mentagroohytes ATCC 9533, potato dextrose broth, 28 degree, turbidity three days after inoculation
# Protocol: as §1
# Wee1 = target: T6, Wee1 (Homo sapiens, UniProt P30291); assay: In vitro phosphorylation inhibition, Wee1 (ELISA); format: biochemical; conditions: CBP501 0.5, 5, 50 uM, 30° C., compared to cyclin-dependent kinases, PKA and PKC (FIG. 1)
# T6 construct: Weel: Human fulllength recombinant with GST fusion, E. Coli; GST; host or cells: E. coli
# T6 sequence (P30291 whole entry, the tested form may be a part): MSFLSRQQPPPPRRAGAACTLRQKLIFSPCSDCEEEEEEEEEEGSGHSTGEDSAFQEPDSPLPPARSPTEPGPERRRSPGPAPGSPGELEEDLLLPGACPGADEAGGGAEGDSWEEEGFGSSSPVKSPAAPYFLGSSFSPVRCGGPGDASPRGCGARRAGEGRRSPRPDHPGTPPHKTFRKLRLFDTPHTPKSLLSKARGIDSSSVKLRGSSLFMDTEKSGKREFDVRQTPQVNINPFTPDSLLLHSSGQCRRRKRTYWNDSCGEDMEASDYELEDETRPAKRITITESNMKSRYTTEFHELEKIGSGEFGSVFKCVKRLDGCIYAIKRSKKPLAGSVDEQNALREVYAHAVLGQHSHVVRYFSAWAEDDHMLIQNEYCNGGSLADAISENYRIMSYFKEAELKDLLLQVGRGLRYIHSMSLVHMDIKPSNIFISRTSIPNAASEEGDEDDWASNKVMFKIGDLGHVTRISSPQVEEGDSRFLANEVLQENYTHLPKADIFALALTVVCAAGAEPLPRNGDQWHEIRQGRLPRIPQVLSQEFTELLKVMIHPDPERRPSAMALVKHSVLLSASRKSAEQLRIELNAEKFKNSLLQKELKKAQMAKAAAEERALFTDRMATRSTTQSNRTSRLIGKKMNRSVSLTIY
# Protocol: as §2, §3
# yeast AH109 = assay: Growth inhibition of yeast AH109 on YAPD plate; format: cell-based, Saccaromices Cerevisie; conditions: 1 hr incubation at 30° in liquid YAPD, then 3 days on YAPD agarose plate (FIG. 2)
# Protocol: Cell culture Saccaromices Cerevisie AH109 was purchased from CLONTECH (Palo Alto, Calif.). YAPD plates were prepared using YPD agar purchased from CLONTECH and adenine purchased from Sigma-Aldrich Co. The cells were cultured at 30 degree.
# Logarithmically growing yeast AH109 in liquid medium (YAPD) was diluted to 1 to 10 with warm liquid YAPD medium with or without CBP501 and/or amphotericin B at the indicated doses. After 1 hr incubation at 30° whole solution was poured onto the YAPD agarose plate. The plate was then incubated 3 days and the samples were phtographed (FIG. 2).
substance,measurement,setting,value
"(d-Bpa)(d-Ser)(d-Trp)(d-Ser) (d-Phe2,3,4,5,6-F)(d-Cha)(d-Arg)(d-Arg)(d-Arg)(d-Gln)(d-Arg)(d-Arg) [CBP501]",MIC (minimul inhibitory concentration),[1],1 µg/mL
same,inhibition of kinase activity (phosphorylation of substrate),PLK1,strongly inhibited
same,MIC (minimul inhibitory concentration),[2],100 µg/mL
same,inhibition of kinase activity (phosphorylation of substrate),ATR,strongly inhibited
same,MIC (minimul inhibitory concentration),[3],30 µg/mL
same,inhibition of kinase activity (phosphorylation of substrate),ATM,strongly inhibited
same,inhibition of kinase activity (phosphorylation of substrate),CHK2,strongly inhibited
same,inhibition of kinase activity (phosphorylation of substrate),CHK1,strongly inhibited
same,MIC (minimul inhibitory concentration),[4],100 µg/mL
same,inhibition of kinase activity (phosphorylation of substrate),Wee1,strongly inhibited
same,growth of yeast AH109 on YAPD plate,yeast AH109,growth inhibition
